Experimental data from patent US20220204510A1, “2,3-DIHYDRO-1H-PYRROLIZINE-7-FORMAMIDE DERIVATIVE AND APPLICATION THEREOF” (CHIA TAI TIANQING PHARMACEUTICAL GROUP CO., LTD., priority 2018, published 2022).
Read-outs that look alike come from different tables or passages of the source.

Columns and labels:
[1] = test system: HBV; assay: qPCR test in the HBV in vitro test (HBV DNA in HepG2.2.15 cells); format: cell-based; conditions: Hepatitis B virus, 192 h, HBV DNA in HepG2.2.15 culture medium, day 8, read-out: Half maximal inhibitory concentration (EC50) of HBV
Method: To evaluate the inhibitory effect of the compound on HBV by detecting content of HBV DNA in HepG2.2.15 cells in a real-time qPCR test, with EC50 of the compound as an indicator.
3.1. HepG2.2.15 cells (4×10^4 cells/well) were inoculated into a 96-well plate and cultured at 37° C. in 5% CO2 overnight. 3.2. On day 2, the compound was 3-fold diluted in gradient for a total of 8 dilution gradients. The compound at different concentrations was added into the culture wells in duplicate. The final concentration of DMSO in the culture medium was 1%. 1 μM GLS4 was used as a 100% inhibition control (the structure of GLS4 disclosed in WO2008154817A1 is as follows:
1% DMSO was used as a 0% inhibition control. 3.3. On day 5, the culture medium was replaced with a fresh culture medium containing the compound. 3.4. On day 8, the culture medium in the culture wells was collected, and the high-throughput DNA purification kit (Qiagen-51162) was used to extract DNA. For specific steps, refer to the product manual.
3.6. Each well of the 96-well PCR plate was added with 15 μL of the reaction mixture, and then with 10 μL of sample DNA or HBV DNA standard. 3.7. The reaction conditions for PCR: heating at 95° C. for 10 min, degeneration at 95° C. for 15 s, and extension at 60° C. for 1 min, with a total of 40 cycles.
3.8.1. Calculation of the inhibition percentage: % Inh.=[1−(DNA copy number in the sample−DNA copy number in 1 μM GLS4)/(DNA copy number in the DMSO control−DNA copy number in 1 μM GLS4)]×100. 3.8.2. Calculation of EC50: half maximal inhibitory concentration (EC50) of the compound for HBV was calculated using GraphPad Prism software. 3.8.3.

[2] = Metabolic stability in liver microsomes; format: in vitro ADME, human
Method: (§1) Experimental objective: to evaluate the metabolic stability of the test compound in CD-1 mice and human liver microsomes
(§2) Experimental procedures: first, the test compound (10 mM) was subjected to a two-step dilution, where the compound was diluted to an intermediate concentration of 100 μM with 100% methanol, and the working solution was diluted to 10 μM with a potassium phosphate buffer; eight 96-well incubation plates were prepared, and named T0, T5, T10, T20, T30, T60, Blank and NCF60, respectively; the reaction time points corresponding to the first 6 incubation plates were 0, 5, 10, 20, 30 and 60 min, respectively; for the Blank plate, neither the test compound nor a control compound was added, and for the NCF60 plate, potassium phosphate buffer was used in an incubation of 60 min in place of a NADPH regeneration system solution; 10 μL of the test compound working solution and 80 μL of the microsome working solution (liver microsome protein concentration was 0.625 mg/mL) were added to the T0, T5, T10, T20, T30, T60 and NCF60 plates, while only the microsome working solution was added to the Blank plate, and all the incubation plates were then placed in a 37° C. water bath for pre-incubation for about 10 min; after the pre-incubation, 10 μL of a NADPH regeneration system working solution was added into each sample well of all the plates except the NCF60 plate and T0 plate to start the reaction, and 10 μL of potassium phosphate buffer was added to each well of the NCF60 plate; therefore, in the test compound or control compound samples, the final reaction concentrations of the compound, testosterone, diclofenac and propafenone were 1 μM, the concentration of the liver microsomes was 0.5 mg/mL, and the final concentrations of DMSO and acetonitrile in the reaction system were 0.01% (v/v) and 0.99% (v/v), respectively; after incubation for an appropriate time (such as 5, 10, 20, 30, and 60 min), 300 μL of a stop solution (acetonitrile solution containing 100 ng/mL tolbutamide and 100 ng/mL labetalol) was added to each sample well to stop the reaction; 300 μL of the stop solution and then 10 μL of the NADPH working solution were added to the T0 plate, all the sample plates were shaken and centrifuged in a centrifuge (3220×g) for 20 min, and then 100 μL of supernatant was taken from each well and diluted with 300 μL of pure water for liquid chromatography-tandem mass spectrometry analysis.

[3] = Metabolic stability in liver microsomes; format: in vitro ADME; conditions: mouse, CD-1 mice liver microsomes
Method: as §1, §2

[4] = target: T1, CYP2C19 (Homo sapiens, UniProt P33261); assay: Inhibition of human liver microsomal cytochrome P450 isoenzymes; format: in vitro ADME; conditions: human liver microsomes
T1 construct: from tissue; host or cells: human liver microsomes
Method: (§3) Experimental objective: to determine the inhibitory effect of the test compound on the activity of human liver microsomal cytochrome P450 isoenzymes (CYP1A2, CYP2C9, CYP2C19, CYP2D6 and CYP3A4). Experimental procedures: first, the test compound (10 mM) was diluted in gradient to prepare working solutions (100× final concentration) at concentrations of: 5, 1.5, 0.5, 0.15, 0.05, 0.015, and 0.005 mM, and working solutions of positive inhibitors for P450 isoenzymes (CYP1A2, CYP2C9, CYP2C19, CYP2D6, and CYP3A4) and the specific substrate mixtures thereof (5 in 1) were prepared simultaneously; human liver microsomes frozen in a−80° C. refrigerator were thawed on ice, and after all thawed, the human liver microsomes were diluted with PB to prepare a working solution at a specific concentration (0.253 mg/mL); 20 μL of the substrate mixture (20 μL of PB was added into the blank well) and 158 μL of the working solution of human liver microsomes were added into the reaction plate which was then placed on ice for use; then 2 μL of the test compound at each concentration (N=1) and a specific inhibitor (N=2) were added into the corresponding well, and the group without the inhibitor (test compound or the positive inhibitor) was added with a corresponding organic solvent as a control sample (the test compound control sample was 1:1 DMSO:MeOH; the positive control sample was 1:9 DMSO:MeOH); after pre-incubation under a 37° C. water bath for 10 min, 20 μL of a coenzyme factor (NADPH) solution was added into the reaction plate and incubated under a 37° C. water bath for 10 min, 400 μL of a cold acetonitrile solution (the internal standard was 200 ng/mL Tolbutamide and Labetalol) was added to terminate the reaction, and the reaction plate was placed on a shaker and shaken for 10 min; after centrifugation at 4,000 rpm for 20 min, 200 μL of the supernatant was collected and added to 100 μL of water to dilute the sample, and, finally, the plate was sealed, oscillated shaken evenly, and subjected to LC/MS/MS detection.

[5] = target: T2, CYP2D6 (Homo sapiens, UniProt P10635); assay: as above; format: in vitro ADME; conditions: human liver microsomes
T2 construct: from tissue; host or cells: human liver microsomes
Method: as §3

[6] = target: T3, CYP1A2 (Homo sapiens, UniProt P05177); assay: as above; format: in vitro ADME; conditions: human liver microsomes
T3 construct: from tissue; host or cells: human liver microsomes
T3 sequence (P05177 1-516): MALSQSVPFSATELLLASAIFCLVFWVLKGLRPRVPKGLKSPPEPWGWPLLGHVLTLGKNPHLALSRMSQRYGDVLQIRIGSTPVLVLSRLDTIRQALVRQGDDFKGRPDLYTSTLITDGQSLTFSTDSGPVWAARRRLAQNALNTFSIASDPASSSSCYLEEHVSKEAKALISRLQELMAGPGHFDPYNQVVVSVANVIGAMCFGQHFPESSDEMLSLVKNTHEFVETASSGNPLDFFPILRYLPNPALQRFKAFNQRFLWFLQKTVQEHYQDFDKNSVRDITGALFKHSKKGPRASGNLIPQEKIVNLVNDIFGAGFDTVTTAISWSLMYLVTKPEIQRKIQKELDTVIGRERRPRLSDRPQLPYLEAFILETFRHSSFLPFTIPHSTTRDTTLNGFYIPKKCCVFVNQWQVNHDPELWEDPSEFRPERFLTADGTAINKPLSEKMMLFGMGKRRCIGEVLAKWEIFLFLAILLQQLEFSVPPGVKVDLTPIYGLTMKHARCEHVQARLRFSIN
Method: as §3

[7] = target: T4, CYP2C9 (Homo sapiens, UniProt P11712); assay: as above; format: in vitro ADME; conditions: human liver microsomes
T4 construct: from tissue; host or cells: human liver microsomes
Method: as §3

[8] = target: T5, CYP3A4 (Homo sapiens, UniProt P08684); assay: as above; format: in vitro ADME; conditions: human liver microsomes
T5 construct: from tissue; host or cells: human liver microsomes
Method: as §3

T2 sequence (P10635 whole entry): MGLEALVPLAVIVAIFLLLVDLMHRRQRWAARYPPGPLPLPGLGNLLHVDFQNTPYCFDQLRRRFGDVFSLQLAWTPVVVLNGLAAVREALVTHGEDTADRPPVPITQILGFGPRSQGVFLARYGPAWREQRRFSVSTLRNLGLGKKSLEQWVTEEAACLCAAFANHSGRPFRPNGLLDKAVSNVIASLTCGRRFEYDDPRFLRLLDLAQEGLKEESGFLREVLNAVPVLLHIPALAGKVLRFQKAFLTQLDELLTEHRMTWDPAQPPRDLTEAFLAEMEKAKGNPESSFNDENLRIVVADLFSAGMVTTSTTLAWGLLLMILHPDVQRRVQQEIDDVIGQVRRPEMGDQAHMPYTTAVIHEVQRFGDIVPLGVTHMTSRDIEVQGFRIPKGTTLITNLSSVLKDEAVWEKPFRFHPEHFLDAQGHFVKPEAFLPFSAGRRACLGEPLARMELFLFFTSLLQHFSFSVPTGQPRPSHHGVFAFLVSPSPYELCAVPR
T5 sequence (P08684 whole entry): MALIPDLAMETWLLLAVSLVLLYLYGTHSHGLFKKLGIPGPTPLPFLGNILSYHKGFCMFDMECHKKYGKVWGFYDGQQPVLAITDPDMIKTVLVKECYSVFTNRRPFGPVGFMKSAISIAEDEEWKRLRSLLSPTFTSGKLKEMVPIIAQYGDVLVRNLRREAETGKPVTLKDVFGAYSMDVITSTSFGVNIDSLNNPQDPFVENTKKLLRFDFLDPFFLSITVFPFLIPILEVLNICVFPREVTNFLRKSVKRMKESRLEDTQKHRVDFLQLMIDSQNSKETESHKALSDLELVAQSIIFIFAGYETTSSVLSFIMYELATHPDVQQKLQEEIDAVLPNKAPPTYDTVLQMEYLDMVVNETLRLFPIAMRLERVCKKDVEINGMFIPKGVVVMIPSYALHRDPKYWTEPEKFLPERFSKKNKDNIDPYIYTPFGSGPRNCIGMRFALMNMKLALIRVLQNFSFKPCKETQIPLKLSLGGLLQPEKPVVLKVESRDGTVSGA
T1 sequence (P33261 whole entry): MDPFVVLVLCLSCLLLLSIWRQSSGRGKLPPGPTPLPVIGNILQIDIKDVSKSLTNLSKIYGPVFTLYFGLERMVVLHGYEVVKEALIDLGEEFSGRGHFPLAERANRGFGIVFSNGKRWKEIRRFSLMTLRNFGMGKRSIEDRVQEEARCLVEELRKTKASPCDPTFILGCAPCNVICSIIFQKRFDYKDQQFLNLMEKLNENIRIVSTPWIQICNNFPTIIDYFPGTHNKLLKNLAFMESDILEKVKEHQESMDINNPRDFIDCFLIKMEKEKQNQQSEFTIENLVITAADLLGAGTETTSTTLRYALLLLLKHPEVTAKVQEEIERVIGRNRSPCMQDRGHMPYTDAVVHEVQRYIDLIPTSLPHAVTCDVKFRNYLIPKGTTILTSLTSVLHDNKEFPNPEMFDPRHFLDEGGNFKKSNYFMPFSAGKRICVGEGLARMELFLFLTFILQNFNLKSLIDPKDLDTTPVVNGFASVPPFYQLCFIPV
T4 sequence (P11712 whole entry): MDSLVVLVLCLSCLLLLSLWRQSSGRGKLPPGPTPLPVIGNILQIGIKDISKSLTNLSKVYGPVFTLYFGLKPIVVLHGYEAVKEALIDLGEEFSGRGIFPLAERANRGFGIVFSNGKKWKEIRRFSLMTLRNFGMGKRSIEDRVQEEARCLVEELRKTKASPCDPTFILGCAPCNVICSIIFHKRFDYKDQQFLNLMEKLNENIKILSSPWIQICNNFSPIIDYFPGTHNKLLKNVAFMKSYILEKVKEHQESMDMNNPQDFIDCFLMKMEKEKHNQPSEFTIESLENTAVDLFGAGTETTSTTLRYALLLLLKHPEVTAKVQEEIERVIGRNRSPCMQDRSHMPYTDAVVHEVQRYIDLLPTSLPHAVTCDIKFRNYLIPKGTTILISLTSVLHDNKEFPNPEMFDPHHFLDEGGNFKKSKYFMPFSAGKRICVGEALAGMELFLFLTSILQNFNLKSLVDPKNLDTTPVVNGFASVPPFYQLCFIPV

## C[C@]1(NC(=O)C(=O)c2c(Cl)c(C(=O)Nc3ccc(F)c(F)c3)c3n2CCC3)CC[C@@H](CC(=O)O)CC1 [Compound 17]
[1]
  EC50: 0.007 µM
[2]; Human liver microsomes, 1 μM compound, 0.5 mg/mL
  half-life at 1 μM: > 2.42 h
[2]; human liver microsomes
  CLint scaled at 1 μM: < 8.6 mL/min/kg
[2]; human liver microsomes, read-out: CLint(mic)
  microsomal CLint at 1 μM: < 9.6 µL/min/mg
[3]
  CLint scaled at 1 μM: < 38 mL/min/kg
[3]; 1 μM compound, 0.5 mg/mL
  half-life at 1 μM: > 2.42 h
[3]; read-out: CLint(mic)
  microsomal CLint at 1 μM: < 9.6 µL/min/mg
[4]
  IC50: > 50 µM
[5]
  IC50: > 50 µM
[6]
  IC50: > 50 µM
[7]
  IC50: > 50 µM
[8]
  IC50: > 50 µM
